US20260174829A1, “METHODS OF REDUCING TYPE 2 CYTOKINE-MEDIATED INFLAMMATION USING NEUROMEDIN PEPTIDES” (Rutgers, The State University of New Jersey, priority 2018, published 2026)

System: Nippostrongylus brasiliensis (Nb)-infected mice
Assay: Nmb treatment (i.t.) of Nippostrongylus brasiliensis-infected mice
Type: in vivo, mouse
Description: FIGS. 6A-6E. […] (A), Nb-infected mice were treated with PBS or Nmb (i.t.) and ILC2s in the BAL were quantified. (B) Expression of IL-5 and IL-13 in the lungs of PBS or Nmb-treated mice was determined on day 7 post-Nb by Real-time PCR. (C) Eosinophils in the BAL were quantified and (D) worm burdens were determined on day 7 post-Nb infection. ILC2s were sort-purified from the lungs of control or baso-dep mice on day 7 post-Nb and cultured (O/N) with IL-2 and IL-7 in the presence or absence of Nmb and (E) IL-5 and IL-13 levels in culture supernatants were determined by ELISA. P values were determined by two-tailed Student's t-tests.
Methods for maintenance, recovery, infection and isolation of N. brasiliensis larvae were performed as previously described (Camberis et al., 2003, Animal model of Nippostrongylus brasiliensis and Heligmosomoides polygyrus. Current protocols in immunology/edited by John E. Coligan . . . [et al.] Chapter 19:Unit 19.12.). Mice were infected with ˜500 N. brasiliensis larvae by subcutaneous injection. For basophil depletion, WT and basophil-depleted mice were treated with 0.375 μg of diphtheria toxin i.p. every other day; mice were sacrificed 3-7 days post-N. brasiliensis infection. For neuromedin B treatment, mice were anesthetized and treated with 10 μg of neuromedin B (MP Biomedicals) dissolved in 50 μL of PBS administered via intratracheal instillation.
For BAL collection after necropsy, 5 mL of PBS were injected and aspirated from the trachea of each mouse, after collection the volume of BAL collected was recorded. Following BAL collection, lungs were collected at necropsy and single-cell suspensions for flow cytometric analysis were prepared as previously described (Jungblut et al., J Vis Exp 29:1266, 2009). Briefly, pulmonary tissue was minced and incubated in HBSS containing 2.5% of FBS, collagenase D (2 mg/mL, Roche) and DNAse I (80 U/mL, Roche) for 30 min at 37° C. Cell suspensions were filtered through a […] filter and analyzed by flow cytometry. Additionally sections of pulmonary tissue were collected for real-time PCR and histological analysis.
Cells were stained with monoclonal anti-mouse fluorescently conjugated antibodies: B220 (RA3-6B2), c-Kit (ACK2), CD3 (145-2C11), CD4 (GK1.5), CD5 (53-73), CD19 (1D3), NK1.1 (PK136), CD11b (MI/70), CD11c (N418), IgE (23G3), FcRI (MAR-1), CD49b (DX5), CD45 (30-F11), CD90 (5E10), CD127 (A7R34), F4/80 (BM8), γδTCR (eBioGL3), Siglec-F (E50-2440), LγδG (1A8), LγδC (AL-21), IL-5 (TRFK5), IL-13 (eBiol3A), Ter-119 (TER-119) from eBioscience or BD Biosciences. For intracellular staining, cells were incubated for 5 hours at 37° C. with Leukocyte Activation Cocktail, with BD GolgiPlug™ (BD Biosciences) following manufacturer's instructions. Basophils were analyzed as CD45^+CD3^−CD19^−FceR1^+CD49b^+. Eosinophils were analyzed as CD45^+CD11b^+Siglec-F^+CD11c^−. Neutrophils were analyzed as Live CD45^+CD11b^+LγδG^+. ILC2s were analyzed as CD45^+CD3^−CD19^−CD11b^−CD11c^−NK1.1^−B220^−CD5^−Ter-119^− γδ TCR^−CD90^+CD127^+IL-5^+IL-13^+. Samples were acquired on a BD Fortessa flow cytometer (BD Biosciences) and analyzed using Flowlo software (v10.0.5, Tree Star). Cell sorting was performed using a FACSAriaII (BD Bioscience).
RNA from sections of lung tissue was isolated by homogenization in TRIzol (Invitrogen) followed by phenol-chloroform extraction and isopropanol precipitation. cDNA was generated per standard protocol with Superscript reverse transcriptase (Invitrogen) and used as input for real-time PCR. Real-time data were analyzed using the ΔΔCT method using SYBR Green chemistry (Applied Biosystems) with β-actin serving as the endogenous housekeeping gene. All reactions were run on an ABI 7500 Fast Real-Time PCR System (Applied Biosystems). Samples were normalized to naïve controls.

[1] = Nmb i.t. vs PBS, day 7, Real-time PCR
[2] = Nmb i.t. vs PBS, day 7 post-infection

## H2N-GNLWATGHFM-amide [Nmb]
[1]
  IL-5 expression in the lungs: reduced
  IL-13 expression in the lungs: reduced
[2]
  ILC2 responses (ILC2s in the BAL): reduced
  eosinophilia (eosinophils in the BAL): reduced
  infection-induced neutrophilia: no effect
Nmb i.t. vs control mice, day 7 post-infection
  worm clearance (worm burdens): failed to clear worms as efficiently as control mice
